{"source": "patent US4914086A", "about": "“Method for treating African human and veterinary trypanosomiases” (priority 1987, dated 1990)", "key": {"[1]": {"test_system": "mammalian cells", "settings": "cited from earlier work"}, "[2]": {"test": "in vivo", "protocol": "Swiss-Webster (25-30 g) mice were used throughout. In the EATRO 110 model, groups of 100 mice were infected (10^5 trypanosomes/mouse) and the infection was allowed to develop 24 hours before commencing therapy. Animals were divided into groups of 5 before treatment. Cured animals survived >30 days beyond deaths of controls. All compounds were administered by i.p. injection."}, "[3]": {"test_system": "African trypanosomes", "settings": "previous studies; cited from earlier work"}, "[4]": {"test_system": "T. b. brucei TREU 667", "test": "CNS model, T. b. brucei TREU 667 infection in mice (Table 4)", "format": "in vivo, Trypanosoma brucei brucei (in Swiss-Webster mice)", "settings": "for efficacy in CNS model in words: TREU 667", "description": "T. b. brucei EATRO 110 isolate was maintained as described (Bacchi, C. J., H. C. Nathan, S. H. Hutner, P. P. McCann and A. Sjoerdsma; Polyamine metabolism: a potential chemotherapeutic target in trypanosomes. Science 210: 332-334, 1980). It produces an acute, rapidly fatal parasitemia which is lethal to mice 3-5 days after inoculation. Two T. B. brucei strains, TREU 667 and LUMP 1001 developed by Jennings and coworkers (Jennings, F. W., D. D. Whitelaw and G. M. Urquhart; The relationship between duration of infection with Trypanosoma brucei in mice and the efficacy of chemotherapy. Parasitology 75: 143-153, 1977/Jennings, F. W. and G. D. Gray; Relapsed parasitemia following chemotherapy of chronic T. brucei infections in mice and its relation to cerebral trypanosomes; Contr. Microbiol. Immunol. 7 147-154, 1983) were used as CNS models. Both produce infections which are refractory to Berenil® (diminazene aceturate) and develop within 21 days after inoculation. They are not usually fatal until >40 days after inoculation. LUMP 1001 causes a more virulent CNS infection than TREU 667, and is regarded as more difficult to cure (Jennings, F. W. and G. D. Gray. Relapsed parasitemia following chemotherapy of chronic T. brucei infections in mice and its relation to cerebral trypanosomes. Contr. Microbiol. Immunol. 7 147-154, 1983).\nThe models for […] nervous system infections used TREU 667 and LUMP 1001 strains which were stored frozen and passaged once in rats before infection of mice. Maintenance and use of these screens were as described (Clarkson, A. B. Jr., C. J. Bacchi, G. H. Mellon, H. C. Nathan, P. P. McCann and A. Sjoerdsma. Efficacy of DFMO+blemoycin in a mouse model of central nervous system African trypanosomiasis. Proc. Natl. Acad. Sci. USA. 80: 5729-5733, 1983/Clarkson, A. B. Jr., E. J. Biene, C. J. Bacchi, P. P. McCann, S. H. Hutner and A. Sjoerdsma. New drug combination for experimental late stage African trypanosomiasis: DFMO with suramin. Am. J. Trop. Med. Hyg. 33: 1073-1077, 1984/Dube, D. K., G. Mpimbaza, A. C. Allison, E. Lederer and L. Rovis. Antitrypanosomal activity of sinefungin, Am. J. Trop. Med. Hyg. 32: 31-33, 1983/Fish, W. R., J. J. Marr, R. L. Berens, D. L. Looker, D. J. Nelson, S. LaFon and A. E. Balber. Inosine analogs as chemotherapeutic agents for African trypanosomes: metabolism in trypanosomes and efficacy in tissue culture. Anti-microb. Ag. Chemother. 27: 33-36, 1985/Clazer, R. I., and L. S. Lloyd. Effects of 8-azaadenosine and formycin on cell lethality and the synthesis and methylation of nucleic acids in human colon carcinoma cells in culture. Biochem. Pharmacol. 31: 3207-3214, 1982/Bacchi, C. J., H. C. Nathan, A. B. Clarkson, Jr., E. J. Bienen, A. J. Bitonti, P. P. McCann and A. Sjoerdsma. Activity of the ornithine decarboxylase inhibitors DL-α-difluoromethylornithine and monofluormethyldehydroornithine methylester alone and in combination with suramin against Trypanosoma brucei brucei central nervous system models, Am. J. Trop. Med. Hyg. (in press)). Briefly, groups of 100-120 mice were infected and the infections allowed to develop until day 21, when the animals were separated into groups of 10 and therapy commenced. Controls were treated with Berenil (40 mg/kg) on day 21. These always relapsed 40-70 days after treatment. Parasitemia was followed by examining tail vein blood smears once weekly. Animals which had relapsed were removed from cages. TREU 667 infections were followed >225 days after inoculation and LUMP 1001 were followed >280 days, as determined by the relapse pattern in previous work (Bacchi, C. J., H. C. Nathan, A. B. Clarkson, Jr., E. J. Bienen, A. J. Bitonti, P. P. McCann and A. Sjoerdsma. Activity of the ornithine decarboxylase inhibitors DL-α-difluoromethylornithine and monofluormethyldehydroornithine methylester alone and in combination with suramin against Trypanosoma brucei brucei central nervous system models. Am. J. Trop. Med. Hyg. (in press)). […]"}, "[5]": {"test_system": "VA-13 human cells", "settings": "cited from earlier work"}, "[6]": {"test_system": "T. cruzi", "settings": "previous studies; cited from earlier work"}, "[7]": {"test_system": "T. B. gambiense", "settings": "cited from earlier work"}, "[8]": {"test_system": "T. brucei subsp.", "settings": "cited from earlier work"}, "[9]": {"test_system": "Trypanosoma brucei gambiense", "settings": "bone marrow tissue culture system; cited from earlier work"}, "[10]": {"test_system": "bloodstream trypomastigotes", "settings": "in culture; cited from earlier work"}, "[11]": {"test_system": "mouse L cells", "settings": "cited from earlier work"}, "[12]": {"test_system": "T. b. rhodesiense", "settings": "cited from earlier work"}, "[13]": {"test_system": "Pneumocystis Carinii", "settings": "tissue culture; cited from earlier work"}, "[14]": {"test_system": "Leishmania spp", "settings": "previous studies; cited from earlier work"}, "[15]": {"test_system": "T. congolense", "settings": "cited from earlier work"}, "[16]": {"test_system": "T. b. brucei", "settings": "cited from earlier work"}, "[17]": {"settings": "multiple daily doses, Dube et al."}}, "note": "Entries after “also recorded” stand apart in the source; their conditions may differ.", "data": [{"smiles": "O=c1[nH]cnc2c([C@@H]3O[C@H](CO)[C@@H](O)[C@H]3O)c[nH]c12", "note": "[9-DINO, 7-beta-D-ribofuranosyl-4-oxo-3H, 5H-pyrrolo (3,2-d) pyrimidine]", "values": [{"measurement": "cleavage into ribose and purine analog moieties", "setting": "[1]", "result": "cannot be cleaved into ribose and purine analog moieties"}, {"measurement": "dose at which toxicity appeared", "setting": "[2]; mouse, in vivo", "result": 400, "unit": "mg/kg"}, {"measurement": "toxicity in words", "setting": "[2]; prolonged (i.e. 1 week) dose regimens", "result": "no evidence of toxicity"}, {"measurement": "activity in words", "setting": "[3]", "result": "more active than allopurinol, thipurinol, and their respective nucleosides"}, {"measurement": "# Cured/Total", "setting": "[4]; 5 mg/kg i.p., 7 days", "result": "0/5"}, {"measurement": "% Cured", "setting": "[4]; 5 mg/kg i.p., 7 days", "result": 0, "unit": "%"}, {"measurement": "Avg. Day of Relapse (Range)", "setting": "[4]; 5 mg/kg i.p., 7 days", "result": 41, "unit": "days"}, {"measurement": "# Cured/Total", "setting": "[4]; 10 mg/kg i.p., 7 days", "result": "0/5"}, {"measurement": "% Cured", "setting": "[4]; 10 mg/kg i.p., 7 days", "result": 0, "unit": "%"}, {"measurement": "Avg. Day of Relapse (Range)", "setting": "[4]; 10 mg/kg i.p., 7 days", "result": 41, "unit": "days"}, {"measurement": "# Cured/Total", "setting": "[4]; 25 mg/kg i.p., 7 days", "result": "1/5"}, {"measurement": "% Cured", "setting": "[4]; 25 mg/kg i.p., 7 days", "result": 20, "unit": "%"}, {"measurement": "Avg. Day of Relapse (Range)", "setting": "[4]; 25 mg/kg i.p., 7 days", "result": "60 (41-135) Day"}, {"measurement": "# Cured/Total", "setting": "[4]; 100 mg/kg i.p., 7 days", "result": "0/20"}, {"measurement": "% Cured", "setting": "[4]; 100 mg/kg i.p., 7 days", "result": 0, "unit": "%"}, {"measurement": "Avg. Day of Relapse (Range)", "setting": "[4]; 100 mg/kg i.p., 7 days", "result": "49 (35-58) Day"}, {"measurement": "# Cured/Total", "setting": "[4]; 250 mg/kg i.p., 7 days", "result": "3/10"}, {"measurement": "% Cured", "setting": "[4]; 250 mg/kg i.p., 7 days", "result": 30, "unit": "%"}, {"measurement": "Avg. Day of Relapse (Range)", "setting": "[4]; 250 mg/kg i.p., 7 days", "result": "68 (45-86) Day"}, {"measurement": "efficacy in CNS model in words", "setting": "[4]", "result": "did not cure CNS infections"}, {"measurement": "metabolism to adenine nucleotide analogs in words", "setting": "[5]", "result": "not metabolized to adenine nucleotide analogs"}, {"measurement": "activity in words", "setting": "[6]", "result": "more active than allopurinol, thipurinol, and their respective nucleosides"}, {"measurement": "metabolism in words", "setting": "[7]", "result": "metabolized to 9-deaza-ATP"}, {"measurement": "metabolism in words", "setting": "[8]", "result": "can be aminated by T. brucei subsp. and converted to analogs of ATP"}, {"measurement": "activity in words", "setting": "[9]", "result": "active at very low concentrations"}, {"measurement": "metabolism in words", "setting": "[10]", "result": "converted to toxic adenosine nucleotide analogues"}, {"measurement": "metabolism in words", "setting": "[11]", "result": "nor metabolized to adenosine nucleotide analogues by these cells; also recorded: not metabolized to adenine nucleotide analogs"}, {"measurement": "metabolism in words", "setting": "[12]", "result": "metabolized to 9-deaza-ATP"}, {"measurement": "activity in words", "setting": "[13]", "result": "active"}, {"measurement": "activity in words", "setting": "[14]", "result": "more active than allopurinol, thipurinol, and their respective nucleosides"}]}, {"smiles": "Nc1ncnc2c1ncn2[C@@H]1O[C@H](C[C@@H](N)CC[C@H](N)C(=O)O)[C@@H](O)[C@H]1O", "note": "[Sinefungin, 6,9-Diamino-1-(6-amino-9H-purin-9-yl)-1,5,6,7,8,9-hexadeoxy-beta-D-ribo-decofuranuronic acid]", "values": [{"measurement": "# Cured/Total", "setting": "[4]; 2.5 mg/kg i.p., 4 days", "result": "0/18"}, {"measurement": "% Cured", "setting": "[4]; 2.5 mg/kg i.p., 4 days", "result": 0, "unit": "%"}, {"measurement": "Avg. Day of Relapse (Range)", "setting": "[4]; 2.5 mg/kg i.p., 4 days", "result": "39 (35-56) Day"}, {"measurement": "# Cured/Total", "setting": "[4]; 5 mg/kg i.p., 4 days", "result": "0/10"}, {"measurement": "% Cured", "setting": "[4]; 5 mg/kg i.p., 4 days", "result": 0, "unit": "%"}, {"measurement": "Avg. Day of Relapse (Range)", "setting": "[4]; 5 mg/kg i.p., 4 days", "result": "41 (35-46) Day"}, {"measurement": "# Cured/Total", "setting": "[4]; 10 mg/kg i.p., 3 days", "result": "0/10"}, {"measurement": "% Cured", "setting": "[4]; 10 mg/kg i.p., 3 days", "result": 0, "unit": "%"}, {"measurement": "Avg. Day of Relapse (Range)", "setting": "[4]; 10 mg/kg i.p., 3 days", "result": "38 (35-46) Day"}, {"measurement": "# Cured/Total", "setting": "[4]; 10 mg/kg i.p., 7 days", "result": "6/10"}, {"measurement": "% Cured", "setting": "[4]; 10 mg/kg i.p., 7 days", "result": 60, "unit": "%"}, {"measurement": "Avg. Day of Relapse (Range)", "setting": "[4]; 10 mg/kg i.p., 7 days", "result": "124 (35-209) Day"}, {"measurement": "efficacy in CNS model in words", "setting": "[4]", "result": "did not produce complete cures"}, {"measurement": "total dose to which infection responded", "setting": "[15]; 9 injections 2 h apart", "result": 0.45, "unit": "mg"}, {"measurement": "cure in words", "setting": "[15]; [17]", "result": "cured"}, {"measurement": "% curable", "setting": "[16]; 3×5 mg/kg dose, 8 hour intervals", "result": 100, "unit": "%"}, {"measurement": "cure in words", "setting": "[16]; [17]", "result": "cured"}]}]}
